According to patent US10080756B2, “Combination methods for treating cancers” (Gilead Sciences, Inc., priority 2014, dated 2018):
pEC50: −log10 of the molar value. Where two headings read alike, the source gives them in different places. Each block holds one molecule with its values, some of them ahead of it.

Columns and labels:
DHL-10 = assay: Cell Titer Glo viability assay, DHL-10, alone or with compound of Formula I (Example 3); details: for Fold shift: EC50 alone vs +300 nM Compound of Formula I
Procedure: All procedures were performed at Gilead Sciences, Inc. in Branford, Conn. […] Compound plates were diluted 1:100 in RPMI without serum or additives but containing either 1% DMSO or 3 μM of the compound of Formula I creating a 10× stock. The DLBCL cell line, DHL-10 was plated at 10,000 cells per well in RPMI supplemented with 10% FBS and 100 U/L penicillin-streptomycin. To each well containing cells, 11 μl of 10× compound mixture in serum-free media was added in a final concentration of 0.2% DMSO and cells were incubated at 37° C. in 5% CO2 for 72 hours. Cell viability was assessed using Cell Titer Glo (CTG, Promega, Madison, Wis.) following the manufacturer's protocol on an Envision plate reader (Perkin Elmer, Waltham, Mass.). CTG signals were recorded for individual compound treatments and combinations. EC50 values were determined using a four parameter variable slope model with GraphPad Prism 6.0 software.

SU-DHL-6 = assay: Cell Titer Glo viability assay, SU-DHL-6; type: cell-based; details: Homo sapiens, read-out: Inhibition of Viability, EC50
Procedure: (§1) All procedures were performed at Gilead Sciences, Inc. in Branford, The compound of formula (I), cyclophosphamide, doxorubicin and vincristine sulfate were dissolved in DMSO to prepare stock solutions that were serially diluted three-fold in DMSO in a 96 well plate format at 1000× so the final starting assay concentrations tested would be 10 μM, 200 μM, 10 μM, and 1 μM respectively, for each compound. Compound plates were diluted 1:100 in RPMI without serum or additives creating a 10× stock. Cells were seeded into a 96-well plate at 10,000-20,000 cells per well in 100 μl of growth media appropriate to the cell line supplemented with 100 U/L penicillin-streptomycin. OCI-Ly3, OCI-Ly4 and OCI-Ly7 were grown in Iscove's+20% FBS, OCI-Ly19 was grown in alphaMEM+20% FBS, and all other cell lines were grown in RPMI+10% FBS. To each well, 11 μl of 10× compound was added in a final concentration of 0.1% DMSO and cells were incubated at 37° C. in 5% CO2 for 72 hours. Cell viability was assessed with Cell Titer Glo (Promega, Madison, Wis.) following the manufacturer's protocol on an Envision plate reader (Perkin Elmer, Waltham, Mass.). EC50 values were determined using a four parameter variable slope model with GraphPad Prism 6.0 software. All EC50 values represent mean values of from duplicate dose response curves.

Karpas 422 = assay: Cell Titer Glo viability assay, Karpas 422; type: cell-based; details: Homo sapiens, read-out: Inhibition of Viability, EC50
Procedure: as §1

WSU-FSCCL = assay: Cell Titer Glo viability assay, WSU-FSCCL; type: cell-based; details: read-out: Inhibition of Viability, EC50
Procedure: as §1

KMS-11 = assay: Cell Titer Glo viability assay, KMS-11; type: cell-based; details: Homo sapiens, read-out: Inhibition of Viability, EC50
Procedure: as §1

MM1.S = assay: Cell Titer Glo viability assay, MM1.S; type: cell-based; details: Homo sapiens, read-out: Inhibition of Viability, EC50
Procedure: as §1

SU-DHL-10 = assay: Cell Titer Glo viability assay, SU-DHL-10; type: cell-based; details: Homo sapiens, read-out: Inhibition of Viability, EC50
Procedure: as §1

RPMI-8266 = assay: Cell Titer Glo viability assay, RPMI-8266; type: cell-based; details: read-out: Inhibition of Viability, EC50
Procedure: as §1

OCI-LY3 = assay: Cell Titer Glo viability assay, OCI-LY3; type: cell-based; details: Homo sapiens, read-out: Inhibition of Viability, EC50
Procedure: as §1

OCI-LY4 = assay: Cell Titer Glo viability assay, OCI-LY4; type: cell-based; details: read-out: Inhibition of Viability, EC50
Procedure: as §1

[1] = test system: 10 diffuse large B-cell lymphoma (DLBCL), 4 multiple myeloma (MM), 2 follicular lymphoma (FL), and 1 mantle cell lymphoma (MCL) cell lines; assay: Cell Titer Glo viability assay, summary over all cell lines tested; type: cell-based; details: at concentrations <10000 nM
Procedure: as §1

OCI-LY19 = assay: Cell Titer Glo viability assay, OCI-LY19; type: cell-based; details: Homo sapiens, read-out: Inhibition of Viability, EC50
Procedure: as §1

Pfeiffer = assay: Cell Titer Glo viability assay, Pfeiffer; type: cell-based; details: Homo sapiens, read-out: Inhibition of Viability, EC50
Procedure: as §1

OCI-LY7 = assay: Cell Titer Glo viability assay, OCI-LY7; type: cell-based; details: Homo sapiens, read-out: Inhibition of Viability, EC50
Procedure: as §1

OPM-2 = assay: Cell Titer Glo viability assay, OPM-2; type: cell-based; details: Homo sapiens, read-out: Inhibition of Viability, EC50
Procedure: as §1

SU-DHL-2 = assay: Cell Titer Glo viability assay, SU-DHL-2; type: cell-based; details: Homo sapiens, read-out: Inhibition of Viability, EC50
Procedure: as §1

WSU-NHL = assay: Cell Titer Glo viability assay, WSU-NHL; type: cell-based; details: Homo sapiens, read-out: Inhibition of Viability, EC50
Procedure: as §1

Mino = assay: Cell Titer Glo viability assay, Mino; type: cell-based; details: Homo sapiens, read-out: Inhibition of Viability, EC50
Procedure: as §1

SU-DHL-4 = assay: Cell Titer Glo viability assay, SU-DHL-4; type: cell-based; details: Homo sapiens, read-out: Inhibition of Viability, EC50
Procedure: as §1

[2] = Cell Titer Glo viability assay, summary over all cell lines tested; type: cell-based; details: B-cell; range over the 17 cell lines of Table 1; read-out: EC50 values to inhibit cell viability, range over cell lines
Procedure: as §1

[3] = in vivo; cited from earlier work
[4] = Homo sapiens, 72 h, read-out: Inhibition of cell viability EC50, No Compound of Formula I
[5] = read-out: Inhibition of cell viability EC50, +300 nM Compound of Formula I, DHL-10, in combination with 300 nM compound of Formula I, 72 hours

Structure (SMILES): COc1cc2c(c(OC)c1OC)-c1ccc(OC)c(=O)cc1[C@@H](NC(C)=O)CC2 [Colchicine, colchicine]
- Fold shift (DHL-10; DHL-10): 1.0
- pEC50 (DHL-10; [4]): 7.87
- pEC50 (DHL-10; [5]): 7.85

Structure (SMILES): COc1ccc(/C=C\c2cc(OC)c(OC)c(OC)c2)cc1O [Combretastatin A4, combretastatin A4]
- Fold shift (DHL-10; DHL-10): 1.2
- pEC50 (DHL-10; [5]): 8.32
- pEC50 (DHL-10; read-out: Inhibition of cell viability EC50, No Compound of Formula I, DHL-10, compound alone, 72 hours): 8.23

Structure (SMILES): O=P1(N(CCCl)CCCl)NCCCO1 (centres unmarked) [Cyclophosphamide, cyclophosphamide]
- pEC50 (SU-DHL-6; SU-DHL-6, 72 h): < 5.00
- pEC50 (Karpas 422; KARPAS-422, 72 h): < 5.00
- pEC50 (WSU-FSCCL; 72 h): < 5.00
- pEC50 (KMS-11; KMS-11, 72 h): < 5.00
- pEC50 (MM1.S; 72 h): < 5.00
- pEC50 (SU-DHL-10; SU-DHL10, 72 h): < 5.00
- pEC50 (RPMI-8266; RPMI8266, 72 h): < 5.00
- pEC50 (OCI-LY3; OCI-Ly3, 72 h): < 5.00
- pEC50 (OCI-LY4; 72 h): < 5.00
- inhibition of cell viability in any of the cell lines tested [1]: did not show inhibition cell viability
- pEC50 (OCI-LY19; OCI-LY19, 72 h): < 5.00
- pEC50 (Pfeiffer; 72 h): < 5.00
- pEC50 (OCI-LY7; OCI-Ly7, 72 h): < 5.00
- pEC50 (OPM-2; OPM-2, 72 h): < 5.00
- pEC50 (SU-DHL-2; SU-DHL-2, 72 h): < 5.00
- pEC50 (WSU-NHL; 72 h): < 5.00
- pEC50 (Mino; MINO, 72 h): < 5.00
- pEC50 (SU-DHL-4; SU-DHL-4, 72 h): < 5.00

- pEC50 (SU-DHL-6; SU-DHL-6, DLBCL, single agent, 72 hours): 6.90
- pEC50 (Karpas 422; Karpas 422, DLBCL, single agent, 72 hours): 6.52
- pEC50 (MM1.S; MM, single agent, 72 hours): 7.18
- pEC50 (SU-DHL-10; SU-DHL10, SU-DHL-10, DLBCL, single agent, 72 hours): 6.71
- pEC50 (OCI-LY3; OCI-LY3, DLBCL, single agent, 72 hours): 7.59
- pEC50 (OCI-LY4; OCI-LY4, DLBCL, single agent, 72 hours): 7.43
- pEC50 (OCI-LY19; OCI-LY19, DLBCL, single agent, 72 hours): 8.51
- pEC50 (OCI-LY7; OCI-LY7, DLBCL, single agent, 72 hours): 6.70
- pEC50 (SU-DHL-2; SU-DHL-2, DLBCL, single agent, 72 hours): 6.67
- pEC50 (SU-DHL-4; SU-DHL-4, DLBCL, single agent, 72 hours): 6.67
Structure (SMILES): COc1cccc2c1C(=O)c1c(O)c3c(c(O)c1C2=O)C[C@@](O)(C(=O)CO)C[C@@H]3O[C@H]1C[C@H](N)[C@H](O)[C@H](C)O1 [Doxorubicin, doxorubicin]
- pEC50 (WSU-FSCCL; WSU-FSCCL, FL, single agent, 72 hours): 7.28
- pEC50 (KMS-11; KMS-11, MM, single agent, 72 hours): 6.33
- pEC50 (RPMI-8266; RPMI8266, RPMI-8266, MM, single agent, 72 hours): 6.75
- pEC50 (DHL-10; [4]): 6.82
- pEC50 (DHL-10; [5]): 6.79
- pEC50 [2]: 6.25 to 8.51
- pEC50 (Pfeiffer; DLBCL, single agent, 72 hours): 6.70
- pEC50 (OPM-2; OPM-2, MM, single agent, 72 hours): 6.25
- pEC50 (WSU-NHL; FL, single agent, 72 hours): 6.89
- pEC50 (Mino; Mino, MCL, single agent, 72 hours): 6.94

Structure (SMILES): CC(=O)O[C@H]1C(=O)[C@@]2(C)[C@H]([C@H](OC(=O)c3ccccc3)[C@]3(O)C[C@H](OC(=O)[C@H](O)[C@@H](NC(=O)c4ccccc4)c4ccccc4)C(C)=C1C3(C)C)[C@]1(OC(C)=O)CO[C@@H]1C[C@@H]2O [Taxol, taxol]
- pEC50 (DHL-10; [4]): 8.15
- pEC50 (DHL-10; [5]): 8.25

Structure (SMILES): CC[C@]1(O)C[C@@H]2CN(CCc3c([nH]c4ccccc34)[C@@](C(=O)OC)(c3cc4c(cc3OC)N(C)[C@H]3[C@@](O)(C(N)=O)[C@H](O)[C@]5(CC)C=CCN6CC[C@]43[C@@H]65)C2)C1 [Vindesine, vindesine]
- serum half-life [3]: 24 h
